Measurements published in patent publication US11589590B2, “Antimicrobial coatings and methods of making and using thereof” (GEORGIA TECH RESEARCH CORPORATION, priority 2016, dated 2023).

Assays:
[1] = Fragmentation of pyridine adducts in deuterated aqueous buffer followed by 1H NMR; assay type: physicochemical
From the text: The fragmentation of cationic adducts was followed by ^1H NMR in deuterated buffer, with the relative concentration of each species established by integration of unique resonances. Each adduct in Table 3 and Table 4 was thus examined in three independent runs. […]

CHO-K1 cells = assay type: cell-based; settings: for concentrations at which nontoxic: Chinese hamster
Description: Approximately 1×10^4 CHO-K1 cells/well were plated in a 96-well plate in 100 μL of complete growth media, and adhered overnight at 37° C. The media was then replaced by 100 μL of polymer or monomer in serum-free media at the indicated concentration. Full media was replenished after 4 or 24 h. Viability was measured by MTT assay, with non-treated cells assigned as 100% viability. The results are plotted in FIGS. 11A-11D and 12A-12H.

[2] = pseudo first order fragmentation at 37° C.
[3] = pseudo first order fragmentation at 50° C., deuterated buffer

Row | Compound | krel ([1]; 37° C., relative to 5i = 1) | kfrag [1, 2] | concentrations at which nontoxic (CHO-K1 cells) | krel ([1]; 50° C., relative to 5e = 1.00) | kfrag [1, 3] | concentration up to which no effect (toxicity) (CHO-K1 cells) [µM]
1 | NC(=O)c1cc(Br)c[n+](C2CCC3SC2CCC3[n+]2cc(Br)cc(C(N)=O)c2)c1.O=S(=O)([O-])C(F)(F)F.O=S(=O)([O-])C(F)(F)F (centres unmarked) [Compound 5j, 2,6-di-3-bromo-5-carbamylpyridinium-9-thiabicyclo[3.3.1]nonane ditriflate] | 17 | (9.34 ± 0.87) × 10^−2 h^−1 |  |  |  | 
2 | c1cc(CCCc2ccncc2)ccn1 [monomer 2a] |  |  | below 500 μM |  |  | 
3 | COC(=O)c1cc(Br)c[n+](C2CCC3SC2CCC3[n+]2cc(Br)cc(C(=O)OC)c2)c1.O=S(=O)([O-])C(F)(F)F.O=S(=O)([O-])C(F)(F)F (centres unmarked) [Compound 5l, 2,6-di-3-bromo-5-methoxycarbonylpyridinium-9-thiabicyclo[3.3.1]nonane ditriflate] | 20 | (10.9 ± 1.81) × 10^−2 h^−1 |  |  |  | 
4 | Brc1ccc[n+](C2CCC3SC2CCC3[n+]2cccc(Br)c2)c1.O=[N+]([O-])[O-].O=[N+]([O-])[O-] (centres unmarked) [Compound 5f, 2,6-di-3-bromopyridinium-9-thiabicyclo[3.3.1]nonane dinitrate] |  |  |  | 4.05 | (6.59 ± 0.58) × 10^−2 h^−1 | 
5 | COC(=O)c1ccc[n+](C2CCC3SC2CCC3[n+]2cccc(C(=O)OC)c2)c1.O=[N+]([O-])[O-].O=[N+]([O-])[O-] (centres unmarked) [Compound 5b, 2,6-di-3-methoxycarbonylpyridinium-9-thiabicyclo[3.3.1]nonane dinitrate] |  |  |  | 1.86 | (3.03 ± 0.38) × 10^−2 h^−1 | 
6 | Brc1cncc(OCCCOc2cncc(Br)c2)c1 [monomer 2i, 1,3-bis((5-bromopyridin-3-yl)oxy)propane] |  |  | below 500 μM |  |  | 
7 | O=C(OCCCOC(=O)c1ccncc1)c1ccncc1 [monomer 2c] |  |  | below 500 μM |  |  | 
8 | NC(=O)c1ccc[n+](C2CCC3SC2CCC3[n+]2cccc(C(N)=O)c2)c1.O=[N+]([O-])[O-].O=[N+]([O-])[O-] (centres unmarked) [Compound 5d, 2,6-di-3-carbamylpyridinium-9-thiabicyclo[3.3.1]nonane dinitrate] |  |  |  | 1.95 | (3.18 ± 0.32) ×10^−2 h^−1 | 
9 | COC(=O)c1cc[n+](C2CCC3SC2CCC3[n+]2ccc(C(=O)OC)cc2)cc1.O=[N+]([O-])[O-].O=[N+]([O-])[O-] (centres unmarked) [Compound 5c, 2,6-di-4-methoxycarbonylpyridinium-9-thiabicyclo[3.3.1]nonane dinitrate] | 0.3 | (0.16 ± 0.01) × 10^−2 h^−1 |  | 2.25 | (3.66 ± 0.33) × 10^−2 h^−1 | ≥ 500
10 | COc1cc(Br)c[n+](C2CCC3SC2CCC3[n+]2cc(Br)cc(OC)c2)c1.O=[N+]([O-])[O-].O=[N+]([O-])[O-] (centres unmarked) [Compound 5i, 2,6-di-3-bromo-5-methoxylpyridinium-9-thiabicyclo[3.3.1]nonane dinitrate] | 1 | (0.55 ± 0.04) × 10^−2 h^−1 |  | 4.64 | (7.51 ± 0.53) × 10^−2 h^−1 | ≥ 500
11 | FC(F)(F)c1ccc[n+](C2CCC3SC2CCC3[n+]2cccc(C(F)(F)F)c2)c1.O=[N+]([O-])[O-].O=[N+]([O-])[O-] (centres unmarked) [Compound 5g, 2,6-di-3-trifluoromethylpyridinium-9-thiabicyclo[3.3.1]nonane dinitrate] | 11 | (5.87 ± 0.71) × 10^−2 h^−1 |  | 46.2 | (74.8 ± 5.4) × 10^−2 h^−1 | 
12 | N#Cc1ccc[n+](C2CCC3SC2CCC3[n+]2cccc(C#N)c2)c1.O=[N+]([O-])[O-].O=[N+]([O-])[O-] (centres unmarked) [Compound 5h, 2,6-di-3-cyanopyridinium-9-thiabicyclo[3.3.1]nonane dinitrate] | 2.1 | (1.14 ± 0.16) × 10^−2 h^−1 |  | 6.68 | (10.8 ± 0.98) × 10^−2 h^−1 | 
13 | COC(=O)c1cc(C(=O)OC)c[n+](C2CCC3SC2CCC3[n+]2cc(C(=O)OC)cc(C(=O)OC)c2)c1.O=S(=O)([O-])C(F)(F)F.O=S(=O)([O-])C(F)(F)F (centres unmarked) [Compound 5k, 2,6-di-3,5-dimethoxycarbonylpyridinium-9-thiabicyclo[3.3.1]nonane ditriflate] | 22 | (11.9 ± 1.13) × 10^−2 h^−1 |  |  |  | 
14 | NC(=O)c1cc[n+](C2CCC3SC2CCC3[n+]2ccc(C(N)=O)cc2)cc1.O=[N+]([O-])[O-].O=[N+]([O-])[O-] (centres unmarked) [Compound 5e, 2,6-di-4-carbamylpyridinium-9-thiabicyclo[3.3.1]nonane dinitrate] |  |  |  | 1.00 | (1.62 ± 0.10) ×10^−2 h^−1 | 
